# Measurements reported in article PMC10037499, “High-Throughput Screen Reveals the Structure–Activity Relationship of the Antimicrobial Lasso Peptide Ubonodin” (ACS Central Science, 2023).
# Where a SMILES comes first, the peptide text is derived from it.
# Experiments:
# B. cenocepacia AU24362 = system: B. cenocepacia AU24362; parameters: method as in PMID 35802499; conditions: spot-on-lawn assay; cited from earlier work
# Description: We proceeded to test the antimicrobial activity of the selected variants against two clinical isolates of the Bcc, B. cenocepacia AU0756 and B. cenocepacia AU24362, in broth microdilution assays. […] We revisited these measurements using broth microdilution assays following the Clinical & Laboratory Standards Institute (CLSI) standard.
# [1] = system: RNA polymerase (RNAP) in E. coli MC1061; assay: High-throughput growth-based screen with NGS (enrichment value) for RNA polymerase inhibition; format: cell-based; conditions: log2 of frequency post-IPTG / frequency in cloning transformation library, single mutant library
# Outline: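 E. coli MC1061 carrying ubonodin single/double variant plasmid libraries was grown and induced with 10 µM or 100 µM IPTG; surviving colonies were sequenced by NGS. Enrichment value = log2 of variant frequency post-IPTG over frequency in the cloning transformation library; depletion indicates RNAP inhibition.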
# B. cenocepacia AU0756 = system: B. cenocepacia AU0756
# Outline: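 Ubonodin variants were tested by broth microdilution following CLSI guidelines against clinical Burkholderia cenocepacia isolates AU0756 and AU24362.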
smiles,measurement,setting,value
"CC[C@H](C)[C@@H]1NC(=O)[C@H](CO)NC(=O)CNC(=O)[C@H](CC(=O)O)NC(=O)CNC(=O)CNC(=O)CC[C@@H](C(=O)N[C@@H](Cc2ccc(O)cc2)C(=O)N[C@@H](Cc2ccccc2)C(=O)N[C@@H](CC(N)=O)C(=O)N[C@@H](CCCNC(=N)N)C(=O)N2CCC[C@H]2C(=O)N[C@@H](CCSC)C(=O)N[C@@H](Cc2c[nH]cn2)C(=O)N[C@H](C(=O)N[C@@H](Cc2c[nH]cn2)C(=O)N[C@@H](CC(=O)O)C(=O)N[C@@H](Cc2c[nH]c3ccccc23)C(=O)N[C@@H](CCC(N)=O)C(=O)N[C@H](C(=O)N[C@@H](CCSC)C(=O)N[C@@H](CC(=O)O)C(=O)N[C@@H](CO)C(=O)NCC(=O)N[C@@H](Cc2ccc(O)cc2)C(=O)N[C@@H](Cc2ccc(O)cc2)C(=O)NCC(=O)O)[C@@H](C)CC)[C@@H](C)CC)NC(=O)[C@H](C)NC1=O [WT, ubonodin] (HELM PEPTIDE1{G.G.D.G.S.I.A.E.Y.F.N.R.P.M.H.I.H.D.W.Q.I.M.D.S.G.Y.Y.G}$PEPTIDE1,PEPTIDE1,1:R1-8:R3$$$V2.0; C-terminus assumed)",MIC against strain AU24362,B. cenocepacia AU24362,20 µM
same,Enrichment value,[1]; induction with 10 μM IPTG,−4.2
same,Enrichment value,[1]; induction with 100 μM IPTG,−4.3
same,B. cenocepacia AU0756 MIC,B. cenocepacia AU0756,0.25 to 0.5 µM
